Read-outs that look alike come from different tables or passages of the source.
Legend:
[1] = biological target: T1, EGFR del746-750 T790M (Homo sapiens, UniProt P00533, DEL746-750/T790M); assay: EGFR del746-750 T790M biochemical assay (Caliper mobility shift); settings: 5 μM ATP; apparent Ki (Morrison fit) converted by Cheng-Prusoff, Km of ATP 2.1 μM; read-out: EGFR(T790M/d746-750) Ki
T1 construct: purchased Carna Biosciences 08-528
Summary of the method: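 Caliper mobility-shift read-out, with product electrophoretically resolved from substrate and measured. Reactions were quenched with 80 mM EDTA after 30 min at 22 °C.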

[2] = biological target: T2, EGFR T790M L858R (Homo sapiens, UniProt P00533, L858R/T790M); assay: EGFR T790M L858R biochemical assay (Caliper mobility shift); settings: 5 μM ATP; apparent Ki (Morrison fit) converted by Cheng-Prusoff, Km of ATP 1.3 μM
T2 construct: purchased Life Technologies PV4879
T2 sequence (P00533 25-1210 T790M/L858R): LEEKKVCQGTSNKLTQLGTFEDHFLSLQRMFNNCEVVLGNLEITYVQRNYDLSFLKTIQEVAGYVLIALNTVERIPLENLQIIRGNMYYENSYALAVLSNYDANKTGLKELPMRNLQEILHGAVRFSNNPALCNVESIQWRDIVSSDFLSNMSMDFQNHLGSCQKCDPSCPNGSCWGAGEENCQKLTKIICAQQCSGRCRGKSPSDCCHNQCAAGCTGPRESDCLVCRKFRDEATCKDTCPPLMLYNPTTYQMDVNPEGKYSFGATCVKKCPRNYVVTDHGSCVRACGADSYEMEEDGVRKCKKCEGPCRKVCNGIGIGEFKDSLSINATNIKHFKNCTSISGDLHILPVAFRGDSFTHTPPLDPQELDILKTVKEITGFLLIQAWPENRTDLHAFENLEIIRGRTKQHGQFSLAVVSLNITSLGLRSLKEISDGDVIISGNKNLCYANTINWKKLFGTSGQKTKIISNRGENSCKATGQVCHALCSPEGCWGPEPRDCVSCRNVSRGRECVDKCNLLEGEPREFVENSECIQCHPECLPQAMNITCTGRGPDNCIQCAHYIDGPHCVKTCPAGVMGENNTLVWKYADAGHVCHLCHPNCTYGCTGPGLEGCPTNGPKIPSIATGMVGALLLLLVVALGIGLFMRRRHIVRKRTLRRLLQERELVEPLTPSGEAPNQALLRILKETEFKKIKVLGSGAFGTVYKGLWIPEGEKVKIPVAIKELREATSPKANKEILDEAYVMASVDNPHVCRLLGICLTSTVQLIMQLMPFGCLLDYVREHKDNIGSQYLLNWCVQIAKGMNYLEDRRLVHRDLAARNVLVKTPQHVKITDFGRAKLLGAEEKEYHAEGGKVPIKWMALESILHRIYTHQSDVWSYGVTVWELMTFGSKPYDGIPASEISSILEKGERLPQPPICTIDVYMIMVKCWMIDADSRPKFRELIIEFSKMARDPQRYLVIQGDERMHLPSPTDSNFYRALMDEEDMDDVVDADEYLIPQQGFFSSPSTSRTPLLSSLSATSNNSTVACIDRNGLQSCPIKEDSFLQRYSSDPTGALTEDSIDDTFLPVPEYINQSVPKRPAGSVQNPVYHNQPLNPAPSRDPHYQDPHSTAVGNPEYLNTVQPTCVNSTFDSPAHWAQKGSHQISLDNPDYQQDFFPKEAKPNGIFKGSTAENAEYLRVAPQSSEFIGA
Summary of the method: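 Caliper mobility-shift read-out, electrophoretic separation of substrate from product, after a 30-minute kinase reaction at 22 °C. EDTA at 80 mM terminates each reaction.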

[3] = system: H1975 (EGFR T790M/L858R) cell proliferation; assay: H1975 proliferation assay (Cell Titer-Glo); assay type: cell-based; settings: NCI-H1975 cells, 72 hour incubation, read-out: H1975 antiproliferative EC50
Protocol: H1975 Proliferation Assays
All cell culture reagents were purchased from Invitrogen/Gibco. Cells are cultured at 37° C. at 5% CO2 and split as recommended by ATCC.

[4] = biological target: T3, phosphor-EGFR in H1975(L585R/T790M) mutant EGFR expressing cells (Homo sapiens, UniProt P00533, L858R/T790M); assay: H1975 pEGFR MSD cellular assay; assay type: cell-based; settings: NCI-H1975 cells, serum starved, 1 hour compound incubation, pEGFR Tyr1068 MSD; read-out: HI975 pEGFR EC50
T3 construct: host or cells: NCI-H1975
T3 sequence (P00533 25-1210 T790M/L858R): as above
Summary of the method: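 Phospho-EGFR read by MSD electrochemiluminescence: capture with anti-pEGFR antibody (overnight, 4° C), detection with SULFO-TAG anti-total EGFR (1 hour, room temperature). Before lysis, H1975 cells starved of serum overnight got compound for 1 hour at 37° C, 0.5% DMSO final. EC50 via four-parameter logistic regression of percent inhibition.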

T1 sequence (P00533 with tags, fused parts or gaps DEL746-750/T790M limits assumed): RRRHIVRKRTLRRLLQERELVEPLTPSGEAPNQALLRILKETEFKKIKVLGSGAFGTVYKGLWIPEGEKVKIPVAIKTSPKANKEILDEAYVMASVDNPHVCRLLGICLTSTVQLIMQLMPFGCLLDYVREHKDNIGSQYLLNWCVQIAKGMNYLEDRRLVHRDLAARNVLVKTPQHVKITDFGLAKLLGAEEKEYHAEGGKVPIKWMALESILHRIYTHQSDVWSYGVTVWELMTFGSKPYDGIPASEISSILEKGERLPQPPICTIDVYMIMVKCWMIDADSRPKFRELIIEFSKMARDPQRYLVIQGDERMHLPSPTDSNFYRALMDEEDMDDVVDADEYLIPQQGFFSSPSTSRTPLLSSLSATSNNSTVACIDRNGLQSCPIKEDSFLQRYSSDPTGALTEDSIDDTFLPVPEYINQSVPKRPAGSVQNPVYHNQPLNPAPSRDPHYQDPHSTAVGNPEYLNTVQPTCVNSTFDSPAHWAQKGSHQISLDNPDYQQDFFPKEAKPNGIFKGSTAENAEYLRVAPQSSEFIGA

SMILES | Ki [1] [nM] | Ki [2] [nM] | EC50 ([3]; Homo sapiens, NCI-H1975, 72 h) [nM] | EC50 [4] [nM] | EC50 [3] [nM]
CC(Nc1nn(C(C)C)c2cc(Nc3ccnc(-c4cnn(S(=O)(=O)C5CC5)c4)n3)ncc12)C(N)=O (stereo not shown) [Example 109, 2-(6-(2-(1-(Cyclopropylsulfonyl)-1H-pyrazol-4-yl)pyrimidin-4-ylamino)-1-isopropyl-1H-pyrazolo[4,3-c]pyridin-3-ylamino)propanamide] | 1.3 | 1.8 | 4620 | 788 | –
CC(C)n1nc(N2CCNC2=O)c2cnc(Nc3ccnc(N4CCC(O)C(F)C4)n3)cc21 (racemic) [Example 22, (±)-1-(6-((2-(cis-3-Fluoro-4-hydroxypiperidin-1-yl)pyrimidin-4-yl)amino)-1-isopropyl-1H-pyrazolo[4,3-c]pyridin-3-yl)imidazolidin-2-one] | 20.5 | 5.4 | > 3000 | 487 | –
CC(C)n1nc(N2CCCC2=O)c2cnc(Nc3ccnc(-c4cnn(S(=O)(=O)C5CC5)c4)n3)cc21 [Example 106, 1-(6-(2-(1-(Cyclopropylsulfonyl)-1H-pyrazol-4-yl)pyrimidin-4-ylamino)-1-isopropyl-1H-pyrazolo[4,3-c]pyridin-3-yl)pyrrolidin-2-one] | 1.6 | 2.1 | 232 | 57.8 | –
CC(C)n1nc(NC(=O)C(C)(C)O)c2cnc(Nc3ccnc(-c4cnn(S(=O)(=O)C5CC5)c4)n3)cc21 [Example 116, N-(6-(2-(1-(Cyclopropylsulfonyl)-1H-pyrazol-4-yl)pyrimidin-4-ylamino)-1-isopropyl-1H-pyrazolo[4,3-c]pyridin-3-yl)-2-hydroxy-2-methylpropanamide] | 2 | 2.6 | 2080 | 629 | –
CCC(C)n1nc(N2CC[C@@H](O)C2)c2cnc(Nc3ccnc(N4CCC(CC#N)(OC)CC4)n3)cc21 (mixture of isomers) [Example 81, 2-(1-(4-(1-sec-Butyl-3-((R)-3-hydroxypyrrolidin-1-yl)-1H-pyrazolo[4,3-c]pyridin-6-ylamino)pyrimidin-2-yl)-4-methoxypiperidin-4-yl)acetonitrile] | 7.1 | 6.4 | 1470 | 265 | –
CC(C)n1nc(N2CCN(C)C2=O)c2cnc(Nc3ccnc(N4CCC(O)C(F)C4)n3)cc21 (stereo not drawn) [Example 76, 1-(6-(2-(cis-3-Fluoro-4-hydroxypiperidin-1-yl)pyrimidin-4-ylamino)-1-isopropyl-1H-pyrazolo[4,3-c]pyridin-3-yl)-3-methylimidazolidin-2-one] | 13.8 | 5.1 | 1180 | 752 | –
CC(C)n1nc(N2CC(C(=O)N3CC4CCC(C3)O4)C2)c2cnc(Nc3ccnc(-c4cnn(S(=O)(=O)C5CC5)c4)n3)cc21 [Example 168, 8-Oxa-3-azabicyclo[3.2.1]octan-3-yl(1-(6-(2-(1-(cyclopropylsulfonyl)-1H-pyrazol-4-yl)pyrimidin-4-ylamino)-1-isopropyl-1H-pyrazolo[4,3-c]pyridin-3-yl)azetidin-3-yl)methanone] | 1.2 | 1.5 | 283 | 25.5 | –
CC(C)n1nc(N2CCOC2=O)c2cnc(Nc3ccnc(-c4cnn(S(=O)(=O)C5CC5)c4)n3)cc21 [Example 72, 3-(6-(2-(1-(Cyclopropylsulfonyl)-1H-pyrazol-4-yl)pyrimidin-4-ylamino)-1-isopropyl-1H-pyrazolo[4,3-c]pyridin-3-yl)oxazolidin-2-one] | 0.5 | 0.7 | 206 | 28.1 | –
CCC(C)n1nc(N2CCNC2=O)c2cnc(Nc3ccnc(N4CCC(S(C)(=O)=O)CC4)n3)cc21 (racemic) [Example 102, 1-{1-sec-Butyl-6-[2-(4-methanesulfonylpiperidin-1-yl)pyrimidin-4-ylamino]-1H-pyrazolo[4,3-c]pyridin-3-yl}imidazolidin-2-one] | 12.4 | 2.2 | 1150 | 710 | –
CC(C)n1nc(NC(C)(C)C)c2cnc(Nc3ccnc(-c4cnn(S(=O)(=O)C5CC5)c4)n3)cc21 [Example 74, N^3-tert-Butyl-N^6-(2-(1-(cyclopropylsulfonyl)-1H-pyrazol-4-yl)pyrimidin-4-yl)-1-isopropyl-1H-pyrazolo[4,3-c]pyridine-3,6-diamine] | 106 | 129 | 4620 | 9260 | –

Next, values leading:

Ki [1] [nM] | Ki [2] [nM] | EC50 ([3]; Homo sapiens, NCI-H1975, 72 h) [nM] | EC50 [4] [nM] | EC50 [3] [nM] | SMILES
11.4 | 6.4 | 3290 | 472 | – | CC(n1nc(N2CC3(COC3)C2)c2cnc(Nc3ccnc(N4CCC(C)(O)CC4)n3)cc21)C(F)(F)F (stereo not shown) [Example 87, 4-Methyl-1-[4-[(3-[2-oxa-6-azaspiro[3.3]heptan-6-yl]-1-(1,1,1-trifluoropropan-2-yl)-1H-pyrazolo[4,3-c]pyridin-6-yl)amino]pyrimidin-2-yl]piperidin-4-ol]
0.7 | 0.7 | 1160 | 177 | – | CC(C)n1nc(N2CC(C(=O)N3CC[C@H](CO)C3)C2)c2cnc(Nc3ccnc(-c4cnn(S(=O)(=O)C5CC5)c4)n3)cc21 [Example 166, (S)-(1-(6-(2-(1-(cyclopropylsulfonyl)-1H-pyrazol-4-yl)pyrimidin-4-ylamino)-1-isopropyl-1H-pyrazolo[4,3-c]pyridin-3-yl)azetidin-3-yl)(3-(hydroxymethyl)pyrrolidin-1-yl)methanone]
2.7 | 1.2 | – | 12.8 | 149 | CCC(C)n1nc(N2CC3(COC3)C2)c2cnc(Nc3ccnc(N4CC[C@@H](O)[C@@H](F)C4)n3)cc21 (single isomer, unassigned) [Example 197, (3S,4R)-1-(4-((1-((R*)-sec-Butyl)-3-(2-oxa-6-azaspiro[3.3]heptan-6-yl)-1H-pyrazolo[4,3-c]pyridin-6-yl)amino)pyrimidin-2-yl)-3-fluoropiperidin-4-ol]
14.6 | 4.9 | > 10000 | 1430 | – | CC(C)n1nc(N2CCO[C@H](CO)C2)c2cnc(Nc3ccnc(N4CC[C@H](O)[C@H](F)C4)n3)cc21 [Example 132, cis-3-Fluoro-1-(4-(3-((S)-2-(hydroxymethyl)morpholino)-1-isopropyl-1H-pyrazolo[4,3-c]pyridin-6-ylamino)pyrimidin-2-yl)piperidin-4-ol]
11.3 | 2.9 | 901 | 219 | – | CC(n1nc(N2CC[C@@H](O)C2)c2cnc(Nc3ccnc(N4CCC(C)(O)CC4)n3)cc21)C(F)(F)F (stereo partly drawn) [Example 143, 1-(4-(3-((R)-3-Hydroxypyrrolidin-1-yl)-1-(1,1,1-trifluoropropan-2-yl)-1H-pyrazolo[4,3-c]pyridin-6-ylamino)pyrimidin-2-yl)-4-methylpiperidin-4-ol]
3.6 | 4.9 | 765 | 244 | – | CC(C)n1nc(N2CCCNC2=O)c2cnc(Nc3ccnc(-c4cnn(S(=O)(=O)C5CC5)c4)n3)cc21 [Example 150, 3-(6-(2-(1-(Cyclopropylsulfonyl)-1H-pyrazol-4-yl)pyrimidin-4-ylamino)-1-isopropyl-1H-pyrazolo[4,3-c]pyridin-3-yl)-tetrahydropyrimidin-2(1H)-one]
